In paper PMC5823789 (Journal of medicinal chemistry, 2018):
“Also recorded” adds a separate entry of the source.

Tests used:
[1] = biological target: T1, hNNMT (Homo sapiens, UniProt P40261); assay: SAHH-coupled fluorescent assay of NNMT methyltransferase activity; type: biochemical
T1 sequence (P40261 1-264): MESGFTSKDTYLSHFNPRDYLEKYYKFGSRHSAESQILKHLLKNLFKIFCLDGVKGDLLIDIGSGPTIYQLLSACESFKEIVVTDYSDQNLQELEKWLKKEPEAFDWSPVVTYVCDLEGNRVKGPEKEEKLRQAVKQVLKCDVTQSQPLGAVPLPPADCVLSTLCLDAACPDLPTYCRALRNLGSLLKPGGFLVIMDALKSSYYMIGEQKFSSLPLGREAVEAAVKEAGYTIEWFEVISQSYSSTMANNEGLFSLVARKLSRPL

[2] = biological target: T1, hNNMT; assay: Isothermal titration calorimetry; type: binding
[3] = biological target: SMYD2 (Homo sapiens, UniProt Q9NRG4); assay: Selectivity assay, scintillation proximity assay; type: biochemical
Sequence of SMYD2 (Q9NRG4 whole entry, species assumed): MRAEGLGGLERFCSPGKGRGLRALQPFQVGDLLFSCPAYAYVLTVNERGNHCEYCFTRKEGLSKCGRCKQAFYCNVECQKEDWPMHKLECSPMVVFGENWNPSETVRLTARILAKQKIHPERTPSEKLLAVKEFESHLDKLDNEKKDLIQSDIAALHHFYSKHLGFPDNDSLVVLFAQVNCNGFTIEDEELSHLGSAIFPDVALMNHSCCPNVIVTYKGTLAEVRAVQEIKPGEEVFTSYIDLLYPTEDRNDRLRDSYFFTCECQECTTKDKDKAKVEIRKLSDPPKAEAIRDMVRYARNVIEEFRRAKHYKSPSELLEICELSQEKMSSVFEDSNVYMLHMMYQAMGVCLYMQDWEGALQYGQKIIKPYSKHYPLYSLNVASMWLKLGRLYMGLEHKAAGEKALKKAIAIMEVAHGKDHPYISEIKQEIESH

[4] = biological target: DOT1L (Homo sapiens, UniProt Q8TEK3); assay: Selectivity assay, filter-based 3H-SAM methyltransferase assay; type: biochemical
Sequence of DOT1L (Q8TEK3 whole entry, species assumed): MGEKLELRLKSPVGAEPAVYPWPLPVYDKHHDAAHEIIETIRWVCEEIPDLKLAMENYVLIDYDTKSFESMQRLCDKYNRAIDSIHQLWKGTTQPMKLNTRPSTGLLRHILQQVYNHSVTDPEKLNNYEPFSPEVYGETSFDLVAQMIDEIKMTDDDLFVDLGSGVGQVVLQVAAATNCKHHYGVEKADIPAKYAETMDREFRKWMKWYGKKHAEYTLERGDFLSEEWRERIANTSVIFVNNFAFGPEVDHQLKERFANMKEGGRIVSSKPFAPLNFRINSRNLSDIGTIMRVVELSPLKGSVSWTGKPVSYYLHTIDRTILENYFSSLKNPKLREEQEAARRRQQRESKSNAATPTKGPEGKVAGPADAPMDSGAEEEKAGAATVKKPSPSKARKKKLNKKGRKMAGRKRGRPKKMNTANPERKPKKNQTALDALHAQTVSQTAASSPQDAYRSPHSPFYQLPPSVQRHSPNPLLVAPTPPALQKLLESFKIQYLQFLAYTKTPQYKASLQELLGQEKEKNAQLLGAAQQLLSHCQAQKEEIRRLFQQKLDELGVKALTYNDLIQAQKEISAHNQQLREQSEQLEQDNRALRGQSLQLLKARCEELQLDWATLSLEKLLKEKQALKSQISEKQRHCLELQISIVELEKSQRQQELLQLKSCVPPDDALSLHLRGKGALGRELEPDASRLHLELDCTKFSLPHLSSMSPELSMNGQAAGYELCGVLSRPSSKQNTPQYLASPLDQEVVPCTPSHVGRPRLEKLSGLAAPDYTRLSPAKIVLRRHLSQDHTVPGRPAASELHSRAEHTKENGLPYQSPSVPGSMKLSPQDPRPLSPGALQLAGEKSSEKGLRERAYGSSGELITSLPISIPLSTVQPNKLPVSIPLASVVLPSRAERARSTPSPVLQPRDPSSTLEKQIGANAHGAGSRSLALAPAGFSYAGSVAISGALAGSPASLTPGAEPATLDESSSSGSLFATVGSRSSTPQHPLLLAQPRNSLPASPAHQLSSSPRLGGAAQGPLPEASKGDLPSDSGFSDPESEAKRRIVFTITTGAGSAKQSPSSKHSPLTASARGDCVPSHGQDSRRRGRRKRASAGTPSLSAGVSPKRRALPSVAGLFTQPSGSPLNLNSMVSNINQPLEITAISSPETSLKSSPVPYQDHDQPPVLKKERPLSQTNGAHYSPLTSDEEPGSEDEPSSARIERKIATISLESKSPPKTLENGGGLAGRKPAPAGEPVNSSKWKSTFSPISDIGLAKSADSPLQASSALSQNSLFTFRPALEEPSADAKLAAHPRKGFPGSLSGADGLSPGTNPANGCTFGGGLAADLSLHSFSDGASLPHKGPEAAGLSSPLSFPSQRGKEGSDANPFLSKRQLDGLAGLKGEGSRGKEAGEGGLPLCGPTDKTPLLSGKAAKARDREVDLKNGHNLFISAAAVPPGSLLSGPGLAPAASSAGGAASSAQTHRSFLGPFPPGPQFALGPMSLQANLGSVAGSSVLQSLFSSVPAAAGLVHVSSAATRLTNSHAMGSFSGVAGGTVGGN

[5] = biological target: T2, PRMT7 (Homo sapiens, UniProt Q9NVM4); assay: Selectivity assay, scintillation proximity assay; type: biochemical
T2 sequence (Q9NVM4 1-692): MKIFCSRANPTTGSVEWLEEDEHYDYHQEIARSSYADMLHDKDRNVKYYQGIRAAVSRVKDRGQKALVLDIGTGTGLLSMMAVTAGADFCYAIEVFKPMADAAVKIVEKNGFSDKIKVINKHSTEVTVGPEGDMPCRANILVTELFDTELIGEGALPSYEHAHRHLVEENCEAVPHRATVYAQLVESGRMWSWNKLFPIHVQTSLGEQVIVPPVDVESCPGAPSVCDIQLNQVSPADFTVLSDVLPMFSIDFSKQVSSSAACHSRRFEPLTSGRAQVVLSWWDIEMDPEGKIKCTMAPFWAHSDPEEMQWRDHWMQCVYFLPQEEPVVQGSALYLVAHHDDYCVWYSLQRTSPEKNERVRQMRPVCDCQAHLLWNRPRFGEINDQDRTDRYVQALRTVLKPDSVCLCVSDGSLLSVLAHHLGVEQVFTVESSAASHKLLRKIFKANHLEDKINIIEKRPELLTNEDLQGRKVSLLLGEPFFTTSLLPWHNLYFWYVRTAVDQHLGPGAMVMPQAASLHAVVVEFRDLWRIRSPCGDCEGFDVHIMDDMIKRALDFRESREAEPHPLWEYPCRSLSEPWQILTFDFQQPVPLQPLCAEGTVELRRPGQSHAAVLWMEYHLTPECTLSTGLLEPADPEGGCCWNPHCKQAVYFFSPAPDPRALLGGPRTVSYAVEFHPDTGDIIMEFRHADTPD

[6] = biological target: T3, BCDIN3D (Homo sapiens, UniProt Q7Z5W3); assay: Selectivity assay, scintillation proximity assay; type: biochemical
T3 sequence (Q7Z5W3 1-292): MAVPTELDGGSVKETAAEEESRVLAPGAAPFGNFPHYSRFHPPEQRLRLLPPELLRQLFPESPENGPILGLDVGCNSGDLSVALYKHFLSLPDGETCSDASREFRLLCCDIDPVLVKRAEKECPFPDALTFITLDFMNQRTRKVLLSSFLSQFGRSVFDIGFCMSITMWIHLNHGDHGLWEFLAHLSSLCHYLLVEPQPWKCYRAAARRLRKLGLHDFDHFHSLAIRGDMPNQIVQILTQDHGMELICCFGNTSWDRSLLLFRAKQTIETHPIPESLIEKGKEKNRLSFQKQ

[7] = substrate: NC(=O)c1cccnc1; assay: purified protein, by the assay type; settings: other: SAHH-coupled assay; kcat 4.1 ± 0.2 min^-1; pH 7.5

C[S+](CC[C@H](N)C(=O)O)C[C@H]1O[C@@H](n2cnc3c(N)ncnc32)[C@H](O)[C@@H]1O (stereo partly drawn) [SAM, S-5′-adenosyl-L-methionine, reference compound]
Km ([1]; read-out: Km for NNMT): 24 ± 6.8 µM | Kd ([2]; read-out: Kd for binding to hNNMT (ITC), 25 °C, 50 mM Tris pH 8.0, 100 mM NaCl): 56.4 ± 9.5 µM

NC(=O)c1cccc(CCN(CCC[C@H](N)C(=O)O)C[C@H]2O[C@@H](n3cnc4c(N)ncnc43)[C@H](O)[C@@H]2O)c1 [compound 6, (S)-2-Amino-5-((((2R,3S,4R,5R)-5-(6-amino-9H-purin-9-yl)-3,4-di-hydroxytetrahydrofuran-2-yl)methyl)(3-carbamoylphenethyl)-amino)pentanoic acid]
Hill slope, SMYD2 [3]: 0.6 | Mechanism of inhibition with respect to cofactor SAM ([1]; 200 μM nicotinamide, SAM varied 12.5 to 200 μM, Lineweaver-Burk): SAM competitive; also recorded: competitive inhibition | Mechanism of inhibition with respect to substrate nicotinamide ([1]; 250 μM SAM, nicotinamide varied 12.5 to 200 μM, Lineweaver-Burk): noncompetitive inhibition | Hill slope, DOT1L [4]: 1.1 | Hill slope, PRMT7 [5]: 1.1 | Hill slope, BCDIN3D [6]: 1.3

NC(=O)c1cccnc1 [nicotinamide]
Binding to hNNMT in ITC in the absence of the cofactor ([2]; no cofactor): not observed

B1: hNNMT (Homo sapiens) (protein)
chain: T1 sequence (P40261 1-264)
Km [7]: 20 ± 3 µM
